From publication PMC8962522, “Direct interaction of TrkA/CD44v3 is essential for NGF-promoted aggressiveness of breast cancer cells” (Journal of Experimental & Clinical Cancer Research : CR, 2022)
Entries after “also recorded” stand apart in the source; their conditions may differ.

Test system: CD44v3
Assay: MST binding of P4 to CD44v3
Details: Supplementary Fig. 6C, listed as P4
Description: MST was conducted using an NT.115 A Pico MST instrument (Nano Temper Technologies GmbH) equipped with red and blue filter sets. The TrkA-His tagged extracellular domain protein (Ala 34-Gly423) (9966-TK-050; R&D Systems, United Kingdom), diluted to 200 nM in PBS-T buffer (supplied by the vendor), was labeled using a Monolith His-Tag Labeling Kit with RED-Tris-NTA (Nano Temper). The RED-Tris-NTA dye was diluted in PBS-T to 100 nM. The mix was incubated at RT in the dark for 30 min. Next, an extract expressing CD44v3-labeled protein (CD44v3-His) and ligand and/or TrkA was mixed at a 1:1 ratio and incubated at RT in the dark for 15 min. For the binding check, peptides and TrkA-His were used. […] The data were analyzed using MO Control Software (Nano Temper).
To block the TrkA-CD44v3 association, 4 mimetic peptides of CD44v3 were designed corresponding to zone 1 [(K) STSSNTISAG], zone 2 (WEPNEENEDE), zone 3 (RDRHLSFSGSG) and zone 4 (IDDDEDFISST) (Fig. 2F & G). The binding capacities of the CD44v3 mimetic peptides to TrkA were then measured by MST (Fig. 2H). […] To confirm mimetic peptide 4 binding, we assessed its ability to bind TrkA using nanoscale differential scanning fluorimetry (nanoDSF; Supplementary Fig. 6A & B).
Supplementary file 13046_2022_2314_MOESM3_ESM.pdf: Additional file 3: Supplementary Figure 1. […] CD44v3 and CD44v6 levels at the plasma membrane were assessed by flow cytometry (A-D). […]

IDDDEDFISST [Peptide 4, mimetic peptide 4 (…) corresponding to the C-terminal region of CD44v3]
binding to CD44v3 (in words): we did not detect CD44v3/P4 binding; also recorded: binds to TrkA but not to CD44v3
